Assay [1] deals with Short Bowel Syndrome (SBS) mice. In words: SBS mice (ICR): visual assessment of stool consistency with reference to Bristol Stool type. Format: in vivo, C57BL/6J mice. The source says: (§1) Adult, male C57BL/6J mice with ˜30 g body weight of ˜4 months received a 12-cm ileum and cecum resection (ICR) with jejunocolonic anastomosis (see FIG. 1, middle). The mice were then randomly assigned to either Cpd 18 or vehicle treatment As control for the abdominal surgery, the sham group was included which had laparotomy, bowel exposure, transection and end-to-end anastomosis but no resection (see FIG. 1, bottom). To prevent intestinal obstruction, all mice were switched to liquid diet 2 days before surgery and maintained on this diet until the end of the experiment. Throughout the experiment, animals were singly housed. All mice were studied with the intention to survive to day 14.
Briefly, mice were anesthetized by i. p. injection of ketamine (100 mg/kg bw) and xylazine (15 mg/kg bw) and orally intubated and ventilated. After midline incision, the distal small bowel and the cecum were exposed and then transected 12 cm proximal to the ileocecal junction and immediately distal to the cecum. The resected bowel was removed, and the length of the specimen was measured. An end-to-end, jejunocolonic anastomosis was created and the abdomen was closed. In the sham group, laparotomy, bowel exposure, transection and end-to-end anastomosis but no resection was performed. […]

For assay [2] the test system is unchanged. In words: SBS mice (ICR): stool water content. Format: in vivo, C57BL/6J mice. Particulars: ICR-resected mice.
Source text: as §1
(§2) Briefly, mice were anesthetized by i. p. injection of ketamine (100 mg/kg bw) and xylazine (15 mg/kg bw) and orally intubated and ventilated. After midline incision, the distal small bowel and the cecum were exposed and then transected 12 cm proximal to the ileocecal junction and immediately distal to the cecum. The resected bowel was removed, and the length of the specimen was measured. An end-to-end, jejunocolonic anastomosis was created and the abdomen was closed. In the sham group, laparotomy, bowel exposure, transection and end-to-end anastomosis but no resection was performed. Immediately after surgery, all mice were weighed and received 1 ml isotonic saline subcutaneously and carprofen 5 mg/kg body weight. All surgical procedures were performed by the same surgeon. Mice were kept in a heated terrarium (29° C.) for 4 h and then returned to individual cages with free access to liquid food and water. The liquid diet was provided in feeding tubes. Mice were allowed to recover for a day after surgery, and then injected once daily with 30 nmol/kg body weight of Cpd 18. 50 mM Histidine buffer pH 6, 200 mM Mannitol served as vehicle control.
Stools were collected on selected days throughout the experiment. Stool water content was assessed by collecting stools in a pre-weighed tube, weighing, and then drying overnight at 80° C. and reweighing the dried stools. […]

For assay [3] the test system is unchanged. Kind of assay: Short bowel syndrome (SBS) mice, ileum and cecum resection (ICR): postoperative survival, body weight, dietary intake. It counts as in vivo, C57BL/6J mice. Particulars: ICR-resected mice.
Source text: as §1
as §2, with “50 mM Histidine buffer pH 6, 200 mM Mannitol served as vehicle control.” left out
Mice were scored for wellbeing daily as described (Berlin et al. 2019). If the wellness score dropped to below 4 pts, or when weight loss exceeded 20%, the mouse was immediately killed and not analyzed further. […]
Body weight (FIG. 6) and food consumption (FIG. 7) was measured daily. […]

Assay [4] deals with SBS mice. Particulars: cited from earlier work.
Assay [5] concerns SBS patients. Conditions: cited from earlier work.

*1 amine or outer side, *2 acyl side, *3 side chain or, on linkers, in order; H or OH if unused. Side-chain parts run from the residue outwards. [ ]: non-standard residue; d: D form. The star is where a group is joined. C18 diacid = O=C(O)CCCCCCCCCCCCCCCCC(=O)*; γGlu = O=C(O)[C@H](CCC(=O)[*:2])N[*:1]; Aib = CC(C)(N)C(=O)O

Regarding “H-H[Aib]EGSFTSELATILDK([γGlu-C18 diacid])QAARDFIAWLIQHKITD-OH [Cpd 18]”, the “stool consistency, Bristol Stool type” value in assay [1] (day 5 after resection, vehicle Type 6 or 7, sham Type 3 or 4) is reported as “Type 4 or 5”; in assay [1] (day 14, vehicle Type 6 or 7) it was “type 4”. Further, the stool water content entry in assay [2] (30 nmol/kg once daily, day 14, vehicle approximately 75%, sham 50%) is reported as “approximately 50%”; in assay [2] (after 2 days), “approximately 75%”. For the same compound, in assay [2] (30 nmol/kg once daily, from day 7), the “stool water content compared to vehicle” value is given as “significantly reduced compared to vehicle”. Moreover, the “survival rate after 14 days” value in assay [3] (30 nmol/kg once daily from day 1 after surgery, vehicle 60%, sham 90%) worked out at 74%. Moreover, in assay [3] (30 nmol/kg once daily, compared to vehicle, up to day 14), the “postoperative relative body weight (relative to initial weight)” value is listed as “differed from the vehicle group after six days onwards by starting to increase towards the initial weight”. In assay [3] (30 nmol/kg once daily, from day 2 onwards, compared to vehicle), the postoperative dietary intake result is “lower”.

Consider `CC[C@H](C)[C@H](NC(=O)[C@H](Cc1ccccc1)NC(=O)[C@H](CC(=O)O)NC(=O)[C@H](CCCNC(=N)N)NC(=O)[C@H](C)NC(=O)[C@H](C)NC(=O)[C@H](CC(C)C)NC(=O)[C@H](CC(N)=O)NC(=O)[C@H](CC(=O)O)NC(=O)[C@H](CC(C)C)NC(=O)[C@@H](NC(=O)[C@@H](NC(=O)[C@H](CC(N)=O)NC(=O)[C@H](CCSC)NC(=O)[C@H](CCC(=O)O)NC(=O)[C@H](CC(=O)O)NC(=O)[C@H](CO)NC(=O)[C@H](Cc1ccccc1)NC(=O)[C@H](CO)NC(=O)CNC(=O)[C@H](CC(=O)O)NC(=O)CNC(=O)[C@@H](N)Cc1c[nH]cn1)[C@@H](C)O)[C@@H](C)CC)C(=O)N[C@@H](CC(N)=O)C(=O)N[C@@H](Cc1c[nH]c2ccccc12)C(=O)N[C@@H](CC(C)C)C(=O)N[C@H](C(=O)N[C@@H](CCC(N)=O)C(=O)N[C@H](C(=O)N[C@@H](CCCCN)C(=O)N[C@H](C(=O)N[C@H](C(=O)N[C@@H](CC(=O)O)C(=O)O)[C@@H](C)O)[C@@H](C)CC)[C@@H](C)O)[C@@H](C)CC` [Teduglutide, [Gly2]-hGLP-2 (1-33)], for which, in assay [4], the “effect on treatment of diarrhea” value is listed as “intermittent effect”. For the same compound, in assay [5], the effect on diarrhea result is “some effect”.

These data come from US20240316155A1, “COMPOSITION FOR TREATING SHORT BOWEL SYNDROME” (ZEALAND PHARMA A/S, priority 2021, published 2024).
